# Data from article PMC7918520, “From Data Mining of Chitinophaga sp. Genome to Enzyme Discovery of a Hyperthermophilic Metallocarboxypeptidase” (Microorganisms, 2021).
# Peptide text beside a SMILES is read from it. * marks the point of attachment. Cbz = O=C(OCc1ccccc1)*
# Columns and labels:
# [1] = molecular target: T1, ChtCP (Chitinophaga sp. CB10, UniProt A0A822ZZF9); assay: Cd-ninhydrin assay of released amino acids, A500, Michaelis-Menten fit; assay type: biochemical; settings: 50 mM HEPES pH 8.0, 65 °C; substrate 0.195 to 25 mM; metal addition not stated
# T1 construct: homodimer; motifs 76HHPEL80 and 267HEXXH271
# From the text: Cd-ninhydrin assay of released amino acids, A500, Michaelis-Menten fit on ChtCP
# [2] = molecular target: ChtCP, M32 family metallocarboxypeptidase from Chitinophaga sp. CB10 (Chitinophaga sp. CB10); assay: SEC; HiLoad Superdex 200 16/60, 20 mM Tris-HCl pH 8, 200 mM NaCl, 0.5% glycerol, 4 °C, 1 mL/min; elution volume compared with mass standards
# T1 sequence (A0A822ZZF9 entry or part of it): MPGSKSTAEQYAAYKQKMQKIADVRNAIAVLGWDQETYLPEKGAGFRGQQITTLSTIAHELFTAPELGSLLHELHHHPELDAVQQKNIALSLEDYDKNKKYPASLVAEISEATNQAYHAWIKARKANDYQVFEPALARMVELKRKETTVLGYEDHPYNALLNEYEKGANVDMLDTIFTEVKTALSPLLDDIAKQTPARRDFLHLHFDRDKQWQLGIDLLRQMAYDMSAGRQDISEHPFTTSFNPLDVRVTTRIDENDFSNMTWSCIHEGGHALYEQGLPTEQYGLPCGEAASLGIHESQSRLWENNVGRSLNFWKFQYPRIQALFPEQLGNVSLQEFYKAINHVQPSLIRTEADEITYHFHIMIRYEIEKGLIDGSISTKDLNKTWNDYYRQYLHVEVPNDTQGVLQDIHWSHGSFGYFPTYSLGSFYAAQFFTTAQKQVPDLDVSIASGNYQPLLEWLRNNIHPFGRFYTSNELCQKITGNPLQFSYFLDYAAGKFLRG
Km [1],stoichiometry N [2],Molecule
28.1 mM,–,"C[C@H](NC(=O)[C@H](C)NC(=O)OCc1ccccc1)C(=O)O [ZAA, benzyloxycarbonyl Ala-Ala] (Cbz-Ala-Ala-OH)"
34.1 mM,–,"C[C@H](NC(=O)OCc1ccccc1)C(=O)N[C@@H](CC(N)=O)C(=O)O [ZAN, benzyloxycarbonyl Ala-Asn] (Cbz-Ala-Asn-OH)"
3.51 mM,–,"C[C@H](NC(=O)OCc1ccccc1)C(=O)N[C@@H](CCCNC(=N)N)C(=O)O [ZAR, benzyloxycarbonyl Ala-Arg] (Cbz-Ala-Arg-OH)"
1.1 mM,–,"C[C@H](NC(=O)OCc1ccccc1)C(=O)N[C@@H](Cc1c[nH]c2ccccc12)C(=O)O [ZAW, benzyloxycarbonyl Ala-Trp] (Cbz-Ala-Trp-OH)"
–,2,"ChtCP, M32 family metallocarboxypeptidase from Chitinophaga sp. CB10 (enzyme)"
